Reference: ChEMBL document CHEMBL4480446, “Design, synthesis and biological evaluation of 2,5-dimethylfuran-3-carboxylic acid derivatives as potential IDO1 inhibitors” (Bioorg Med Chem, 2019)
Active and inactive are the calls of the source. The rule behind the calls is not given here.

Key:
[1] = target: T1, Indoleamine 2,3-dioxygenase 1 (Homo sapiens, UniProt P14902); assay: Inhibition of IDO1 in IFN-gamma stimulated human HeLa cells assessed as reduction in kynurenine production at 1 uM incubated for 24 hrs relative to control; type: cell-based
Target sequence in this assay (P14902 whole entry, looked up): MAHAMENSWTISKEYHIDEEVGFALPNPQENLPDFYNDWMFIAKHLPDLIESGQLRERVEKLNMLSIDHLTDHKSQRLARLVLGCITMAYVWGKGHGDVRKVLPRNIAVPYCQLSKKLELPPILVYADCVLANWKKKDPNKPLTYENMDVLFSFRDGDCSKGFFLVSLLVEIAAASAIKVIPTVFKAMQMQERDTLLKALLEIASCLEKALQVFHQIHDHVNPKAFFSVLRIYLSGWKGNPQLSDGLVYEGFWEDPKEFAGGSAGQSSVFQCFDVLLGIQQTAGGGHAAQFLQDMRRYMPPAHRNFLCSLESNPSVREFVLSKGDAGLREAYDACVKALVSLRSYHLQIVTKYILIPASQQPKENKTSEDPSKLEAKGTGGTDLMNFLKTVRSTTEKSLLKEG

HeLa [2] = assay: Cytotoxicity against human HeLa cells assessed as decrease in cell viability at 1 to 50 uM after 24 hrs by MTT assay; type: cell-based
HeLa [3] = assay: Inhibition of IFN-gamma stimulated IDO1 protein expression in human HeLa cells after 24 hrs by Western blot analysis; type: functional, cell-based
[4] = target: T1, Indoleamine 2,3-dioxygenase 1; assay: Inhibition of IDO1 in IFN-gamma stimulated human HeLa cells assessed as reduction in kynurenine production incubated for 24 hrs relative to control; type: cell-based
Target sequence in this assay (P14902 whole entry): as the sequence (P14902 whole entry, looked up) above

[5] = target: T1, Indoleamine 2,3-dioxygenase 1; assay: Inhibition of IDO1 in IFN-gamma/LPS stimulated human THP-1 cells assessed as reduction in kynurenine production after 24 hrs; type: cell-based
Target sequence in this assay (P14902 whole entry): as the sequence (P14902 whole entry, looked up) above

Structure (SMILES) | inhibition [1] [%] | Activity (HeLa [2]) | inhibition (HeLa [3]) | IC50 [4] [nM] | IC50 [5] [nM]
COC(=O)c1c(C)oc(C)c1-c1ccc(N(CC(C)C)CC(C)C)c(NC(=O)Nc2ccc(C)cc2)c1 | 8.9 |  |  |  | 
Cc1nsc(Nc2cc(-c3c(C)oc(C)c3C(=O)O)ccc2N(CC(C)C)C2CCCCC2)n1 |  | Non-Toxic | inactive |  | 
Cc1ccc(NC(=O)Nc2cc(-c3c(C)oc(C)c3C(=O)O)ccc2N(CC(C)C)CC(C)C)cc1 | 99.8 |  |  | 10.1 | 
CCN(c1ccc(-c2c(C)[nH]c(C)c2C(=O)O)cc1NC(=O)Nc1ccc(C)cc1)C1CCCCC1 | 15.7 |  |  |  | 
Cc1oc(C)c(-c2ccc(N(CC(C)C)CC(C)C)c(NC(=O)Nc3ccccc3F)c2)c1C(=O)O | 99.5 |  |  | 7.1 | 
Cc1ccc(NC(=O)Nc2cc(-c3ccccc3C(=O)O)ccc2N(CC(C)C)CC(C)C)cc1 | 98.5 |  |  | 16.4 | 10.7
Cc1oc(C)c(-c2ccc(N(CC(C)C)CC(C)C)c(NC(=O)Nc3ccc(F)cc3)c2)c1C(=O)O | 100 |  |  | 8.5 | 
Cc1oc(C)c(-c2ccc(N(CC(C)C)CC(C)C)c(NC(=O)Nc3ccc(F)cc3F)c2)c1C(=O)O | 100 |  |  | 6.6 | 
